pIC50: −log10 of the molar value. Read-outs that look alike come from different tables or passages of the source.
Tests used:
22Rv1 cells = experiment: 22Rv1 tumor model in male nude mice; type: in vivo; conditions: 10 mg/kg i.p., three times/week
Description: The therapeutic effects of PCNA-I1 were evaluated in LNCaP cells and 22Rv1 tumor models. LNCaP or 22Rv1 cells (1-2×10^6 cells in gelfoam) were implanted into the subcutis of male nude mice. From four to five days later, tumor-bearing mice were intraperitoneally injected with 10 mg/kg or 50 mg/kg of PCNA-I1. The therapy was continued at three times/week until termination of experiments. Control and treated tumor-bearing mice were monitored daily. Mouse body weight was recorded for toxicity evaluation twice a week and tumor size was measured using calipers twice a week. The experiments were terminated when mice in control groups were moribund. Additionally, to further evaluate potential liver and renal toxicity of PCNA-I1, the blood of tumor-bearing mice were sampled after the treatment with PCNA-I1 for 8 weeks.

LNCaP cells = experiment: DNA damage, apoptosis and cell cycle proteins by immunoblot, LNCaP; type: cell-based, Human
Description: Fluorescence-activated cell sorting (FACS) analysis was performed on both PC-3 cells and LNCaP cells using PCNA-I1. Specifically, cells were treated with 1 or 10 μM PCNA-I1 and sampled for the flow cytometry analysis at 24 H, 48 H, and 72 H. Expression of DNA damage and apoptosis-related proteins in PC-3 cells and LNCaP cells was also determined. Cisplatin, a well-known drug that induces DNA damage and apoptosis, was included in the experiment. LNCaP cells were treated for 6 H, 12 H, or 18 H with 10 μM PCNA-I1, 10 μM cisplatin, or both.
To further explore the differential effects of PCNA-I1 on LNCaP and PC-3 cells, the effects of PCNA-I1 and cisplatin on expression of cell cycle- and apoptosis-related proteins in the two cell lines were compared. LNCaP cells and PC-3 cells were treated with 1 μM PCNA-I1 and/or 5 μM cisplatin for 12 H, 18 H, or 24 H and cell lysates were sampled for immunoblotting.

[1] = tested on: primary mouse spleen lymphocytes; experiment: Alamar blue assay of lymphocyte growth; type: cell-based; conditions: for pIC50: Lymphocyte
Description: IC50 values were derived from growth inhibition curves. Data for tumor cells are a mean of five to seven experiments. Data for primary cells are a mean of three experiments. […] Inhibition of cell growth was calculated using the formula: growth inhibition (%)=(1−A570 of treated/A570 of control)×100. IC50 (the concentration that inhibited cell growth by 50%) values were also determined. For evaluation of lymphocyte growth in suspension, an Alamar blue assay was performed, wherein freshly prepared mouse spleen lymphocytes were stimulated for 72 H with 2 ug/mL concanavalin A (Sigma Chemicals, St. Louis, […].). During the last 24 H, 20 μl/well of Alamar blue (Invitrogen, Carlsbad, Calif.) was added. The fluorescence intensity was measured at 530/580 (excitation/emission) in the FLUOstar Omega microplate reader (BMG LABTECH, Cary, N.C.).
The effects of PCNA-I1 on growth of tumor cells versus primary cells was also investigated. Specifically, the effects of PCNA-1I on the growth of primary cells was investigated using primary culture of mouse lymphocytes. An Alamar blue assay was performed with PC-3 cells as a positive control. Freshly prepared mouse spleen lymphocytes were stimulated for 72 H with 2 μg/mL of concanavalin A. During the last 24 H, 20 μL/well of alamar blue was added. The fluorescence intensity was measured at 530/580 (excitation/emission).

PCNA [2] = molecular target: T1, PCNA (Homo sapiens, UniProt P12004); experiment: PCNA trimer formation assay, PC-3 cell lysate; type: biochemical; conditions: PC-3 lysate, 1 μM or 10 μM, 3 H, SDS-PAGE; FIG. 9(A)
T1 construct: endogenous PCNA was knocked down with transfection of PCNA-specific siRNA; endogenous in cells; host or cells: PC-3
T1 sequence (P12004 whole entry): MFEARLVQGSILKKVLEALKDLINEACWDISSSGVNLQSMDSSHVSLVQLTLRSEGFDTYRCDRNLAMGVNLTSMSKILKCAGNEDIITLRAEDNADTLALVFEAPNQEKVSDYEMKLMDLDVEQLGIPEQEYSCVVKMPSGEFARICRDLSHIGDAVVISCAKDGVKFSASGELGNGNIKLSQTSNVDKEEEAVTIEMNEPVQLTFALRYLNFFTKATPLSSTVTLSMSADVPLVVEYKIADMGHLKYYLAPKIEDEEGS
Description: The effect of PCNA-I1, PCNA-I2, PCNA-I3, PCNA-I4, PCNA-I6, PCNA-I7, PCNA-I8, PCNA-I9, and PCNA-I10 on PCNA trimer formation was investigated by SDS-PAGE and immunoblotting. Specifically, a trimer formation assay was performed on both PC-3 cell lysates and purified recombinant protein. The trimer formation assay was performed on purified recombinant protein to determine whether the effects of PCNA compounds on the stable trimer formation required the participation of other cellular proteins.
Purified His-PCNA (0.1 μg/reaction) and PC-3 cell lysates (50 μg/reaction) were incubated for 3 H at room temperature in a reaction buffer (40 mM Tris-HCl, pH 7.5, 0.2 mg/mL BSA, 10 mM MgCl2, and 10% glycerol) in the absence or presence of DMSO (0.1% vehicle control) or PCNA-I1, PCNA-I2, PCNA-I3, PCNA-I4, PCNA-I6, PCNA-I7, PCNA-I8, PCNA-I9, or PCNA-I10 (1 μM or 10 μM). The reaction was stopped by addition of the SDS-PAGE sample buffer without a reducing agent. The samples were resolved in SDS-PAGE without boiling and analyzed by immunoblotting using PCNA antibody.

PCNA [3] = molecular target: T1, PCNA; experiment: Euchromatin- and heterochromatin-associated PCNA; type: cell-based; conditions: PC-3, 0.5 μM, 8 H; FIG. 12
Description: Differential effects of PCNA-I1 on the level of euchromatin- (often under active gene transcription) and heterchromatin (often under limited gene transcription) associated PCNA were also investigated. Specifically, PC-3 cells were treated for 8 H with 0.5 μM of PCNA-I1 and PCNA was extracted by procedures known in the art with a combination of limited digestion with micrococcal nuclease and treatment with EDTA to obtain total (S1), euchromatin-associated (S2), and heterochromatin-associated (S3). The extracts were subjected to western blotting analysis.

Cc1ccsc1C(=O)N/N=C/c1ccc2ccccc2c1O [PCNA-I1]
Tumor growth, 22Rv1 model (22Rv1 cells): retarded tumor growth
Expression of retinoblastoma (Rb) and cyclin D1 (LNCaP cells; LNCaP and PC-3, 1 μM PCNA-I1 and/or 5 μM cisplatin, 12-24 H): moderately downregulated expression of cell cycle-regulating proteins
Phosphorylation of p53, single agent (LNCaP cells; LNCaP, 10 μM): induced
Expression of p21 protein (LNCaP cells; LNCaP, 10 μM PCNA-I1 and/or 10 μM cisplatin): enhanced expression of p21 protein at 6 H and 12 H
PARP cleavage, single agent (LNCaP cells; LNCaP, 10 μM alone): induced PARP cleavage
DNA double strand break (γH2AX induction), single agent (LNCaP cells; LNCaP, 10 μM alone, 6-18 H, FIG. 17(A)): induced moderate double strand break (DSB) of DNA
pIC50 ([1]; FIG. 2(B), Alamar blue assay, mouse spleen lymphocytes, read-out: IC50, lymphocytes): 5.82
pIC50 ([1]; Mouse, normal cells, Alamar blue, read-out: IC50 Values, Spleen Lymphocytes): 5.82
Lymphocyte growth at low concentrations ([1]; with or without concanavalin A): promoted lymphocyte growth at concentrations below the cytotoxic or cytostatic doses
Portion of PCNA in the trimer form (PCNA [2]): significantly elevated
Euchromatin- and heterochromatin-associated PCNA (PCNA [3]): reduced both euchromatin- and heterochromatin protein 1α
